Measured values: US20240101570A1 (AMGEN INC., priority 2020, published 2024)

Experiments:
[1] = test system: HCT116 MTAP null cells; test: HCT116 MTAP null cell proliferation / viability (CellTiter-Glo, 6 days); assay type: cell-based; conditions: HCT116-MTAP null, 144 h, HCT116 MTAP null cells, 6 days, CellTiter-Glo; read-out: HCT-116 MTAP null IC50
Procedure, shortened: (§1)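 Viability read by CellTiter-Glo after 6-day compound exposure of MTAP-null and wild-type HCT116 cells grown in RPMI 1640 with 10% FBS. Dosing used 1:3 steps from 1 or 10 μM (8-9 points) or 1:2 steps from 10 or 50 μM (22 points); IC50 taken where fitted curve crosses 50% of control.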

[2] = test system: HCT116 WT cells; test: HCT116 WT cell proliferation / viability (CellTiter-Glo, 6 days); assay type: cell-based; conditions: Homo sapiens, HCT-116, 144 h, HCT116 WT cells, 6 days, CellTiter-Glo; read-out: HCT-116 WT IC50
Procedure, shortened: as §1

CCN(Cc1ccc(Br)nn1)C(=O)c1ccc2nc(N)c3c(c2c1)COC3 [Example 708, 4-amino-N-((6-bromo-3-pyridazinyl)methyl)-N-ethyl-1,3-dihydrofuro[3,4-c]quinoline-8-carboxamide]
IC50 [1]: 153 nM | IC50 [2]: 8220 nM

CN(Cc1ccc(C(F)(F)F)nn1)C(=O)c1cc2c(cc1F)nc(N)c1cnn(C)c12 [Example 571, 4-amino-7-fluoro-N,1-dimethyl-N-((6-(trifluoromethyl)-3-pyridazinyl)methyl)-1H-pyrazolo[4,3-c]quinoline-8-carboxamide]
IC50 [1]: 71 nM | IC50 [2]: 4930 nM

C[C@@H](c1ccc(C(F)(F)F)cc1)N(C)C(=O)c1cc2c(cn1)nc(N)c1cnn(C)c12 (single isomer, unassigned) [Example 599]
IC50 [1]: 536 nM | IC50 [2]: 27200 nM

CCN(C(=O)c1ccc2nc(N)c3c(c2c1)COC3)[C@H](C)c1ccc(C(F)(F)F)cc1 [Example 743, 4-amino-N-ethyl-N-((1R)-1-(4-(trifluoromethyl)phenyl)ethyl)-1,3-dihydrofuro[3,4-c]quinoline-8-carboxamide]
IC50 [1]: 15 nM | IC50 [2]: 1090 nM

CCOc1ccc(CN(C(=O)c2ccc3nc(N)c4c(c3c2)COC4)[C@H](C)COC)nn1 [Example 373, 4-amino-N-((6-ethoxy-3-pyridazinyl)methyl)-N-((2R)-1-methoxy-2-propanyl)-1,3-dihydrofuro[3,4-c]quinoline-8-carboxamide]
IC50 [1]: 22 nM | IC50 [2]: 2980 nM

C[C@H](c1ncccn1)N(Cc1ccc(C(F)(F)F)cn1)C(=O)c1ccc2nc(N)c3ncncc3c2c1 [Example 638, 5-amino-N-((1R)-1-(2-pyrimidinyl)ethyl)-N-((5-(trifluoromethyl)-2-pyridinyl)methyl)pyrimido[4,5-c]quinoline-9-carboxamide]
IC50 [1]: 22 nM | IC50 [2]: 378 nM

C[C@H](c1ncccn1)N(Cc1ccc(C(F)(F)F)cn1)C(=O)c1ccc2nc(N)c3ccccc3c2c1 [Example 629, 6-amino-N-((1R)-1-(2-pyrimidinyl)ethyl)-N-((5-(trifluoromethyl)-2-pyridinyl)methyl)-2-phenanthridinecarboxamide]
IC50 [1]: 16 nM | IC50 [2]: 398 nM

CC1OCc2c1c(N)nc1ccc(C(=O)N(Cc3ccc(C#N)cn3)CC3(C#N)CC3)cc21 (stereo not drawn) [Example 913, 4-amino-N-((1-cyanocyclopropyl)methyl)-N-((5-cyanopyridin-2-yl)methyl)-3-methyl-1,3-dihydrofuro[3,4-c]quinoline-8-carboxamide]
IC50 [1]: 49 nM | IC50 [2]: 1700 nM

C[C@@H]1OCc2c1c(N)nc1cnc(C(=O)N(Cc3ccc(C(F)(F)F)cn3)C34CC(C3)C4)cc21 [Example 309, (3S)-4-amino-N-(bicyclo[1.1.1]pentan-1-yl)-3-methyl-N-((5-(trifluoromethyl)-2-pyridinyl)methyl)-1,3-dihydrofuro[3,4-c][1,7]naphthyridine-8-carboxamide]
IC50 [1]: 4000 nM | IC50 [2]: > 10000 nM

C[C@H](c1ncccn1)N(Cc1ccc(Br)nn1)C(=O)c1ccc2nc(N)c3c(c2c1)COC3 [Example 657, 4-amino-N-((6-bromo-3-pyridazinyl)methyl)-N-((1R)-1-(2-pyrimidinyl)ethyl)-1,3-dihydrofuro[3,4-c]quinoline-8-carboxamide]
IC50 [1]: 13 nM | IC50 [2]: 196 nM

Cn1ncc2c3cc(C(=O)N(Cc4ccc(OCC(F)(F)F)nn4)CC4CC4)c(F)cc3nc(N)c21 [Example 817, 4-amino-N-(cyclopropylmethyl)-7-fluoro-3-methyl-N-((6-(2,2,2-trifluoroethoxy)-3-pyridazinyl)methyl)-3H-pyrazolo[3,4-c]quinoline-8-carboxamide]
IC50 [1]: 28 nM | IC50 [2]: 689 nM

CCOc1ccc(CN(CC2CC2)C(=O)c2cc3c4c(c(N)nc3cn2)COC4)nn1 [Example 753, 4-amino-N-(cyclopropylmethyl)-N-((6-ethoxy-3-pyridazinyl)methyl)-1,3-dihydrofuro[3,4-c][1,7]naphthyridine-8-carboxamide]
IC50 [1]: 124 nM | IC50 [2]: 3890 nM
